Patent publication US20030133972A1, “Targeted multivalent macromolecules” (priority 2000, published 2003)
Several values for one entry are separate records, joined by “and”; a condition that tells them apart may be missing. Equal entries are not always repeated. Blank lines part the entries; values can stand above or below the molecule they belong to.

What was measured:
[1] = system: MS1 mouse endothelial pancreatic islet cells; assay: In vitro cell proliferation assay (crystal violet), endothelial cells; assay type: cell-based; settings: murine endothelial cells
Procedure: The effect of free doxorubicin or liposome-encapsulated doxorubicin on the cells was assayed calorimetrically by crystal violet staining method with slight modification. Mouse endothelial cells (ATCC# CRL-2279) and mouse melanoma cells (M2) were seeded in 96well flat-bottomed microtitre plates. The effect of the vesicles on cell proliferation was determined with cells near confluence (about 80%). The medium in each well was replaced with 100 ul of culture medium containing 250 ug/ml of vesicles containing doxorubicin. The mouse endothelial and melanoma cells were incubated for 1 hour at 37° C. and 5% CO2. After 1 hour incubation, the drug was removed, and compete medium that was lacking drug was added, and the cells were incubated for 48 hours at 37° C. and 5% CO2. The experiment was performed in duplicate. At the end of the incubation period, the cells were washed once with PBS and the cultures were fixed by 70% ethanol overnight. Next, the cells were stained with 100 ul of 0.1% crystal violet in 10% ethanol for 10 minutes at room temperature, and the cells were gently washed with water for 5 times. Next, 100 ul of 1% SDS was added to each well and the plates were placed on an orbital shaker for 15 minutes. After the crystal violet in cell membrane was removed with SDS, the plate was read at 590 nm. Finally, cell viability was evaluated as the mean value of optical density.

[2] = system: αvβ3 positive M21 Melanoma cells binding to vitronectin coated plates; assay: Cell adhesion inhibition assay on vitronectin coated plates; assay type: cell-based, human; settings: 1 h incubation, PVs as equivalents of compound 10 on the surface, read-out: Cell Adhesion Assay IC50 (μM of 10 on NPs)
[3] = system: collagen receptors (α2β1 integrins); assay: Cell adhesion assay on plates coated with collagen; assay type: cell-based
Procedure: The cell adhesion assay was also performed with plates coated with collagen. Collagen binds to collagen receptors (α2β1 integrins) but not αvβ3 integrins. […] Without being bound by theory, it is believed that the observed inhibition of cell adhesion by PV-integrin agonist is due to the PV preventing interaction of collagen and its receptor by steric hindrance, due to the large size of the PV. Thus, not only does the PV targeted to a specific receptor bind to the receptor on the cell surface, but it blocks access to adjacent receptors due to its steric bulk.

αvβ3 integrin = αvβ3 integrin (Homo sapiens, UniProt P05106+P06756); assay: Competitive integrin binding assay (PVs mixed with free ligand 10); settings: read-out: concentration of free ligand 10 to achieve 50% inhibition of PV binding; against PV1 carrying the equivalent of 0.5 μM of 10 on its surface
VEGFR1 = VEGFR1 (Homo sapiens, UniProt P17948); settings: affinity of VEGFR1 for VEGF; cited from earlier work

Molecule: COc1cccc2c1C(=O)c1c(O)c3c(c(O)c1C2=O)C[C@@](O)(C(=O)CO)C[C@@H]3O[C@H]1C[C@H](N)[C@H](O)[C@H](C)O1 [Doxorubicin, doxorubicin]
effect on cell proliferation [1]: significant reductions in cell proliferation

IC50 [2]: 64 µM and 63.9 µM
IC50 (αvβ3 integrin): 65 µM
Molecule: 4-[2-(3,4,5,6-Tetrahydropyrimidin-2-ylamino)ethyloxy]-benzoyl-2-(S)amino Ethylsulfonylamino-β-alanine [Compound 10]
inhibition of cell adhesion to collagen coated plates [3]: neither the PV alone nor the agonist alone inhibited cell adhesion

Molecule: VEGF
Kd (VEGFR1): 0.001 to 0.02 nM
